Here are results for two molecules from patent publication US20170190705A1, “Compositions and Methods for Inhibiting BMP” (THE BRIGHAM AND WOMAN'S HOSPITAL, INC., priority 2014, published 2017).

What all share (type): biochemical
In one assay the target is T1, EPHB3 (Homo sapiens, UniProt P54753).
T1 sequence (P54753 34-998): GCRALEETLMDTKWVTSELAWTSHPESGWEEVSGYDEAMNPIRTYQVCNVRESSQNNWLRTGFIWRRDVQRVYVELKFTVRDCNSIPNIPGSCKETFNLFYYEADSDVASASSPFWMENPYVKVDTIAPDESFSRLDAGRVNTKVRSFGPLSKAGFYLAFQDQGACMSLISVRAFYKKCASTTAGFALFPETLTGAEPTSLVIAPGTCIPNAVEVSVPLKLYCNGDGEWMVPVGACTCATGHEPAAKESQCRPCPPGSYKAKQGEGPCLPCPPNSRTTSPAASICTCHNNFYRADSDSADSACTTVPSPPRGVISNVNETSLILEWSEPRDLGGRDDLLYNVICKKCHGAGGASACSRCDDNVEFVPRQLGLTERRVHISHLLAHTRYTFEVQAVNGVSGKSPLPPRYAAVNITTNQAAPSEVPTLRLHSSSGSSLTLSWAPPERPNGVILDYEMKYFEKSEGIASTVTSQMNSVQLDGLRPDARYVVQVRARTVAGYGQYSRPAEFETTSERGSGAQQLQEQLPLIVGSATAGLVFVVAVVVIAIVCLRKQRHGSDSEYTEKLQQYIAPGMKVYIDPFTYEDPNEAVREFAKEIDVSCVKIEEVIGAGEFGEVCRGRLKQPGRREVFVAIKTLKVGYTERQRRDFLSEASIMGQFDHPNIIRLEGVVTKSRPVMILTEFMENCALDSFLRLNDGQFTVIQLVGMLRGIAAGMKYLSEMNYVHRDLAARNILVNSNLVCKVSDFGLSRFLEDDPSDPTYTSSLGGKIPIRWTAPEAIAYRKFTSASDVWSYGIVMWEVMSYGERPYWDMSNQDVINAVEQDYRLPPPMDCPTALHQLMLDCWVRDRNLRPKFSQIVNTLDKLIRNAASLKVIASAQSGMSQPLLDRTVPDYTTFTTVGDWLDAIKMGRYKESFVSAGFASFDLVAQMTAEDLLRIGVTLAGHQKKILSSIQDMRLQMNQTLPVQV
Put plainly: Kinome profiling EPHB3. Conditions: read-out: Inhibitory activity EPHB3; for inhibition at 0.1 µM: 100 nM. The protocol:
(§1) . The kinome-wide selectivity was determined following the methods previously reported by Mohedas et al., ACS Chem Biol 2013, 8, 1291-1302 and Sanvitale et al., PLoS One 2013, 8, e62721.

Another assay deals with T2, PRKG1 (Homo sapiens, UniProt Q13976).
T2 sequence (Q13976 1-671): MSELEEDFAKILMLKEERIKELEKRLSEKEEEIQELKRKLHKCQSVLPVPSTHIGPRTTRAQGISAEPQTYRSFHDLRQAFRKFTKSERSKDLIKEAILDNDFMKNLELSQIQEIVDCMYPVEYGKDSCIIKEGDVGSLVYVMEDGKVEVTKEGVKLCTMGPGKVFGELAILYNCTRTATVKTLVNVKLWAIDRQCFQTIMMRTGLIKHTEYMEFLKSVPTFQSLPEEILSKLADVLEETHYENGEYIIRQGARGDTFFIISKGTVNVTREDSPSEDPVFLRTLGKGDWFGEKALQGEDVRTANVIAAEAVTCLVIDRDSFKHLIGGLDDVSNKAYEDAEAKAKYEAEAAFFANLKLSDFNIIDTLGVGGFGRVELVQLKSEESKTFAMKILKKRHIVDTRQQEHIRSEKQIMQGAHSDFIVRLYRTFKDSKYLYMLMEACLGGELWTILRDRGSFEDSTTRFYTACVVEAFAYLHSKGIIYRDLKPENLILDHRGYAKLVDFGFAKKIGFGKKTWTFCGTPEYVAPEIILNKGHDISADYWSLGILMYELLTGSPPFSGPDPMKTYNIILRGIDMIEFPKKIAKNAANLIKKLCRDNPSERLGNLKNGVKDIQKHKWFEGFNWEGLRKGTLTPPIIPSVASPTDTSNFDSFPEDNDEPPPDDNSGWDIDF
The experiment in a line: Kinome profiling PRKG1. Conditions: read-out: Inhibitory activity PRKG1; for inhibition at 0.1 µM: 100 nM. As to the method: as §1

The next assay addresses T3, NEK1 (Homo sapiens, UniProt Q96PY6).
T3 sequence (Q96PY6 1-1258): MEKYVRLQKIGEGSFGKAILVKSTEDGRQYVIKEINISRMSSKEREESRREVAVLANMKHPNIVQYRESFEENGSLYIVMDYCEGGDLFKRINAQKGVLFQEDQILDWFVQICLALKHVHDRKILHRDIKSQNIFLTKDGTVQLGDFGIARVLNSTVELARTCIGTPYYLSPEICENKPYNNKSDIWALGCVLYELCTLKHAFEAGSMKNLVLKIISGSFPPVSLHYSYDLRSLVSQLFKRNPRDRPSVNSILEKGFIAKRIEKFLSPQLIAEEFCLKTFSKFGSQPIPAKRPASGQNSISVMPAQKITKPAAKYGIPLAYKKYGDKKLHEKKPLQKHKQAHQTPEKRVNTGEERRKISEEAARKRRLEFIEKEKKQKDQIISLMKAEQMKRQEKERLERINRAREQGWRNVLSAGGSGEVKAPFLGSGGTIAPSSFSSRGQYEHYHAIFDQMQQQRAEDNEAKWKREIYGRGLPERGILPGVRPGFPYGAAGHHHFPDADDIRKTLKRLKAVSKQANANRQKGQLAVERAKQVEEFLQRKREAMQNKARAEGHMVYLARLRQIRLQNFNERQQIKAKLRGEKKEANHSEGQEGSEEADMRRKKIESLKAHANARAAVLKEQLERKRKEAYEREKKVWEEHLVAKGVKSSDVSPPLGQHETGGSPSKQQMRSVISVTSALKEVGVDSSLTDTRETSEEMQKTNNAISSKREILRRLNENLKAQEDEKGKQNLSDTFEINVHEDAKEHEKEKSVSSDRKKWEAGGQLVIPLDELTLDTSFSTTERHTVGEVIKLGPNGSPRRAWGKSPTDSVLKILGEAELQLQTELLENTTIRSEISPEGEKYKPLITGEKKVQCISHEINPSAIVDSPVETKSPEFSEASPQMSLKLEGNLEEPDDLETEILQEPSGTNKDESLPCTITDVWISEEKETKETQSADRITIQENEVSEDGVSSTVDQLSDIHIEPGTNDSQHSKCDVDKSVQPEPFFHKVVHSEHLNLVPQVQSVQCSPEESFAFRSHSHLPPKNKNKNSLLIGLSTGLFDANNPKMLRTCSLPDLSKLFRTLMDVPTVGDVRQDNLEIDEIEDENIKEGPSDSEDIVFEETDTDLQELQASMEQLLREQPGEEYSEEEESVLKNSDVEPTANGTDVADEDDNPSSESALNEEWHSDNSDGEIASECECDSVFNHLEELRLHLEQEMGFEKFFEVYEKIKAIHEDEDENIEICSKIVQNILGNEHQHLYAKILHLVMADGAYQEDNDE
Put plainly: Kinome profiling NEK1. Conditions: read-out: Inhibitory activity NEK1; for inhibition at 0.1 µM: 100 nM. The protocol: as §1

For `COc1cc(-c2cc(-c3ccc(N4CCNCC4)cc3)cnc2N)cc(OC)c1OC` [Compound 15, 5-(4-(piperazin-1-yl)phenyl)-3-(3,4,5-trimethoxyphenyl)pyridin-2-amine], the inhibition at 0.1 µM turned out to be 5% at EPHB3, 0% at PRKG1 and 1% on NEK1. For the same molecule, the inhibition at 1 µM at EPHB3 came out at 7%; at PRKG1, 4%; at NEK1, 1%.

In the case of `COc1cc(-c2cc(-c3ccc(N4CCNCC4)cc3)cnc2C)cc(OC)c1OC` [Compound 10, 1-(4-(6-methyl-5-(3,4,5-trimethoxyphenyl)pyridin-3-yl)phenyl)piperazine], the inhibition at 0.1 µM worked out at 1% on EPHB3, 3% at PRKG1 and 2% at NEK1. The inhibition at 1 µM on EPHB3 was determined as 1%; on PRKG1 it was 2%; on NEK1 it was 1%.
